Data reported in patent publication US11806344B2, “Pharmaceutical composition comprising mineralocorticoid receptor antagonist and use thereof” (priority 2016, dated 2023).
“Also recorded” adds a separate entry of the source. Where two headings read alike, the source gives them in different places.

Experiments:
[1] = Absorption of capsules of Capsule formulation 5 in Beagle dogs (Example 3-4); assay type: in vivo; conditions: dog, plasma; mean of four Beagle dogs, oral, 2.67 mg/kg; read-out: BA % (Mean, average bioavailability)
Procedure: Capsule of Capsule formulation 5 as prepared in Example 2, 10 mg of Compound I per capsule.
Solutions: 5% DMSO+95% (6% HP-β-CD solution)
Animals: Four Beagle Dogs.
(1) Administration of capsules. All animals fasted for 12 h or longer before drug administration, and food was supplied 4 h after drug administration, with always ad libitum access to water. Beagle dogs were orally given the capsule of Capsule formulation 5 as prepared in Example 2 (two capsules for each Beagle, 10 mg of Compound I per capsule) in a single dose, and 200 μL of blood was collected for each animal, via the small saphenous vein, immediately prior to the administration (0 h) and 0.17 h, 0.50 h, 0.75 h, 1.0 h, 2.0 h, 4.0 h, 6.0 h, 8.0 h, 12 h and 24 h after the administration. The collected blood was stored in a dry tube with heparin (normal saline containing 0.1% heparin sodium). (2) Plasma preparation. The whole blood samples collected in step (1) were subject to centrifugation at a low speed (8000 r/min, 6 min, 4° C.) to separate the plasma (the whole blood was stored in a mobile freezer at about 0 to 4° C., and plasma had to be separated within 30 minutes after the blood collection), and the plasma was kept in dark in a freezer at −70° C. (or lower) for future analysis.

[2] = Safety, tolerability and pharmacokinetics in healthy subjects, single dose (Example 7); assay type: in vivo, human; conditions: human, plasma, oral
Procedure: (§1) Five groups of healthy subjects were given capsules at doses of 0.5 mg (1 capsule, 0.5 mg of Compound I per capsule), 1.0 mg (2 capsules, 0.5 mg of Compound I per capsule), 2.5 mg (1 capsule, 2.5 mg of Compound I per capsule), 10 mg (1 capsule, 10 mg of Compound I per capsule), and 30 mg (3 capsules, 10 mg of Compound I per capsule), each group containing 8 subjects. The drug administration was done only once.
(§2) The capsules mentioned above were the ones prepared in Example 2, i.e., the capsules of Capsule formulation 3 (0.5 mg of Compound I per capsule), Capsule formulation 4 (2.5 mg of Compound I per capsule), and Capsule formulation 5 (10 mg of Compound I per capsule).
(§3) Plasma samples were collected to measure plasma drug concentration, and the pharmacokinetic parameters were analyzed using the non-compartment model. Serum samples were collected to measure serum potassium levels.

healthy subjects = test: as above; assay type: in vivo, human; conditions: single dose 0.5 to 30 mg/day
Procedure: as §1, §2, §3

[3] = system: patients having chronic kidney disease; test: Safety, tolerability and pharmacokinetics in patients having chronic kidney disease (Example 9); assay type: in vivo, human; conditions: CKD patients; for UACR decreased: at the 8th week; for Predicated AUCtau: predicted from the 0.5 mg/day group
Excerpt: (§4) The patients in this example were those having chronic kidney disease with symptoms of renal failure, proteinuria, acute kidney injury, glomerular nephritis, renal cyst, urinary frequency, renal calculus, obstructive uropathy, and etc. These patients also had other diseases or implications such as diabetes mellitus, hyperlipidemia, hypercholesterolemia, hypertension, peripheral vascular diseases, coronary artery disease, and etc.
(§5) These patients continued to take the medications that they had prior to the present clinical trial, the medications being, for example, angiotensin converting enzyme inhibitors, such as Lisinopril, Benazepril, Enalapril, and Enalapril Maleate; angiotensin II receptor blockers, such as Valsartan and Losartan; calcium channel blockers, such as Amlodipine, and Nifedipine; diuretics, such as Furosemide; beta-receptor blockers, such as Metoprolol succinate, Metoprolol tartrate, Carvedilol, and Atenolol; and antilipemic drugs, such as Simvastatin, Atorvastatin, Fenofibrate, Pravastatin, and Rosuvastatin.
(§6) In this example, the administration dose referred to the amount of Compound I, although the pharmaceutical composition was administered. Two groups of subjects were administered once a day for 56 consecutive days at the daily doses of 0.5 mg (1 capsule for each administration, 0.5 mg of Compound I per capsule) and 2.5 mg (1 capsule for each administration, 2.5 mg of Compound I per capsule), respectively, with 6 subjects for the 0.5 mg/day dose group and also 6 for the 2.5 mg/day dose group. The capsules used here were the capsules prepared in Example 2, i.e., the capsules of Capsule formulation 3 (the capsule with 0.5 mg of Compound I), and Capsule formulation 4 (the capsule containing 2.5 mg of Compound I).
as §3

[4] = as above; assay type: in vivo, human; conditions: human, plasma, oral, CKD patients
Excerpt: as §4, §5, §6, §3

[5] = Water solubility and permeation of Compound I (statement); assay type: physicochemical

Q: Which results are given for `N#Cc1ccc(N2N=C3c4ccc(C(=O)N5CCC(O)CC5)nc4CC[C@@H]3[C@@H]2C2CCCC2)cc1Cl` [Compound I, 2-chloro-4-[(3S,3aR)-3-cyclopentyl-7-(4-hydroxylpiperidine-1-carbonyl)-3,3a,4,5-tetrahydro-2H-pyrazolo[3,4-f]quinolin-2-yl]benzonitrile]?
A: bioavailability [1]: 56.5%; half-life ([2]; single dose 0.5 mg): 61.5 h; AUC(0-t) ([2]; single dose 0.5 mg capsule, read-out: AUC0-24): 0.163 µg·h/mL; half-life ([2]; single dose 1.0 mg): 60.9 h; AUC(0-t) ([2]; single dose 1.0 mg capsules, read-out: AUC0-24): 0.397 µg·h/mL; half-life ([2]; single dose 2.5 mg): 53.3 h; AUC(0-t) ([2]; single dose 2.5 mg capsule, read-out: AUC0-24): 0.64 µg·h/mL; half-life ([2]; single dose 10 mg): 52.8 h; AUC(0-t) ([2]; single dose 10 mg capsule, read-out: AUC0-24): 3.08 µg·h/mL; half-life ([2]; single dose 30 mg): 73.9 h; AUC(0-t) ([2]; single dose 30 mg capsules, read-out: AUC0-24): 5.02 µg·h/mL; half-life ([2]; single dose 0.5 to 30 mg/day): ~60 h; AUC(0-t) ([2]; single dose 0.5 to 30 mg/day, read-out: AUC0-24 (range over dose groups)): 0.163 to 5.02 µg·h/mL; serum potassium level (observation) (healthy subjects): no elevated serum potassium level was observed; UACR decreased ([3]; 0.5 mg/day): 58.9%; UACR decreased ([3]; 2.5 mg/day): 50.7%; UACR decreased compared to the baseline ([3]; administered for one day at 0.5 mg/day): ≥ 30.5%; AUC individual variation: highest AUC vs lowest AUC subject ([3]; capsule, multiple doses 2.5 mg daily): 2.27 times; AUC individual variation: highest AUC vs lowest AUC subject ([3]; capsules, multiple doses 0.5 mg daily): 2.14 times; Predicated AUCtau ([3]; dose 0.1 mg): 0.1305 µg·h/mL; Predicated AUCtau ([3]; dose 0.15 mg): 0.1958 µg·h/mL; Predicated AUCtau ([3]; dose 0.2 mg): 0.261 µg·h/mL; Predicated AUCtau ([3]; dose 0.25 mg): 0.3263 µg·h/mL; Predicated AUCtau ([3]; dose 0.3 mg): 0.3915 µg·h/mL; Predicated AUCtau ([3]; dose 1.0 mg): 1.305 µg·h/mL; Predicated AUCtau ([3]; dose 2.0 mg): 2.61 µg·h/mL; Predicated AUCtau ([3]; dose 2.5 mg): 3.2625 µg·h/mL; serum potassium level (observation) ([3]; multiple doses 0.5 mg/day): no elevated serum potassium level was observed; blood pressures and UACR (observation) ([3]; multiple doses 0.5 mg/day or 2.5 mg/day): significantly decrease in blood pressures and urine albumin-to-creatinine ratio (UACR); serum potassium level (observation) ([3]; multiple doses 2.5 mg/day): serum potassium levels were elevated; also recorded: mild increase of the serum potassium level was observed in one subject; also recorded: In one subject, the serum potassium level slightly increased; AUC ([4]; 0.5 mg, mean AUC plus the standard deviation at 0.5 mg, read-out: upper limit of AUC that is safe): 0.885 µg·h/mL; AUC ([4]; 0.5 mg, mean AUC plus twice the standard deviation at 0.5 mg, read-out: upper limit of AUC that is safe): 1.12 µg·h/mL; AUC ([4]; 0.5 mg/day, administered for one day at 0.5 mg/day, read-out: steady-state AUCtau): ≥ 0.106 µg·h/mL; AUC ([4]; 0.5 mg/day, multiple doses 0.5 mg/day, read-out: average steady-state AUCtau): 0.652 ± 0.232 µg·h/mL; AUC ([4]; 2.5 mg, mean AUC plus the standard deviation at 2.5 mg, read-out: upper limit of AUC that is safe): 2.89 µg·h/mL; AUC ([4]; 2.5 mg, mean AUC plus twice the standard deviation at 2.5 mg, read-out: upper limit of AUC that is safe): 3.17 µg·h/mL; AUC ([4]; 2.5 mg/day, multiple doses 2.5 mg/day, read-out: average safe steady-state AUCtau): 2.61 ± 0.28 µg·h/mL; permeation rate [5]: medium; solubility in water [5]: insoluble in water
